Laboratory results taken from ChEMBL document CHEMBL2069301, “Exploration of the structure-activity relationship of the diaryl anilide class of ligands for translocator protein--potential novel positron emitting tomography imaging agents” (Bioorg Med Chem Lett, 2012).
pKi: −log10 of the molar value. One block for each molecule: values may come before it.

Tests used:
[1] = Lipophilicity, log P of the compound by HPLC method; assay type: physicochemical
Translocator protein = Translocator protein (Rattus norvegicus, UniProt P16257); assay: Displacement of [3H]PK11195 from TSPO in Wistar rat heart incubated for 15 mins
Brain = assay: Stability in naive Wistar rat brain assessed as parent compound level at 1 to 3 MBq, iv using [18F] labeled compound measured 60 mins post dose; assay type: ADME, organism-based; settings: in vivo, 1 h
[2] = Lipophilicity, log D of the compound at pH 7.4; assay type: physicochemical; settings: buffer
Rattus norvegicus [3] = assay: Biodistribution in naive Wistar rat whole brain at 1 to 3 MBq, iv using [18F] labeled compound measured 2 mins post dose; assay type: ADME, organism-based; settings: in vivo
Striatum [4] = assay: Ratio of biodistribution in striatum at 2 mins post dose to biodistribution in striatum post 30 mins in naive Wistar rat at 1 to 3 MBq, iv using [18F] labeled compound; assay type: ADME, organism-based; settings: in vivo
Rattus norvegicus [5] = assay: Biodistribution in naive Wistar rat olfactory bulbs at 1 to 3 MBq, iv using [18F] labeled compound measured 30 mins post dose; assay type: ADME, organism-based, Olfactory bulb; settings: in vivo, 0.5 h
Striatum [6] = assay: Ratio of biodistribution in olfactory bulbs to striatum of in naive Wistar rat at 1 to 3 MBq, iv using [18F] labeled compound measured 30 mins post dose; assay type: ADME, organism-based; settings: in vivo, 0.5 h

Sequence of Translocator protein (P16257 whole entry, looked up): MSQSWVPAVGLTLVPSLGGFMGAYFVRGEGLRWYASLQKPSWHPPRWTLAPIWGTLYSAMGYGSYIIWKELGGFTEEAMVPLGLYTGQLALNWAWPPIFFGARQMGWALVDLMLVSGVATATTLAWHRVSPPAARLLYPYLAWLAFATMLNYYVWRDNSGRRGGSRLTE

SMILES: COc1ccccc1CN(C(=O)CF)c1cnccc1Oc1ccccc1
- logP [1]: 2.72
- pKi (Translocator protein): 8.66
- Stability (Brain): 52%

SMILES: COc1ncccc1CN(C(=O)CF)c1cc(F)ccc1Oc1ccccc1
- logD ([2]; read-out: logD): 2.3
- Drug uptake (Rattus norvegicus [3]): 0.84 % ID/g
- pKi (Translocator protein): 8.45
- Ratio (Striatum [4]): 4.39
- Drug uptake (Rattus norvegicus [5]): 0.5 % ID/g
- Stability (Brain): 72%
- Ratio (Striatum [6]): 2.78

SMILES: COc1ccc(OC)c(CN(C(=O)C[18F])c2ccccc2Oc2ccccc2)c1
- Drug uptake (Rattus norvegicus [3]): 0.74 % ID/g
- Stability (Brain): 91%

- logD ([2]; read-out: logD): 3.73
SMILES: CCC(C)N(C)C(=O)c1cc2ccccc2c(-c2ccccc2Cl)n1 (centres undefined) [PK-11195]

- logD ([2]; read-out: logD): 1.69
- Drug uptake (Rattus norvegicus [3]): 0.45 % ID/g
- Ratio (Striatum [4]): 2.85
- Drug uptake (Rattus norvegicus [5]): 0.4 % ID/g
- Ratio (Striatum [6]): 3.08
SMILES: CC(=O)N(Cc1ccccc1OCCF)c1cccnc1Oc1ccccc1

SMILES: COc1ccc(OC)c(CN(C(=O)CF)c2cccc3cc(C)oc23)c1
- Drug uptake (Rattus norvegicus [3]): 0.68 % ID/g
- pKi (Translocator protein): 8.20
- Ratio (Striatum [4]): 6.3
- Drug uptake (Rattus norvegicus [5]): 0.35 % ID/g
- Stability (Brain): 80%
- Ratio (Striatum [6]): 3.5

- logD ([2]; read-out: logD): 2.2
- pKi (Translocator protein): 6.98
SMILES: CC(=O)N(Cc1cccn(CCF)c1=O)c1ccccc1Oc1ccccc1

SMILES: COc1ccc(OC)c(CN(C(=O)CF)c2cc(F)ccc2OC(C)C)c1
- pKi (Translocator protein): 8.01

SMILES: COc1ccccc1CN(C(=O)CF)c1cccnc1Oc1ccccc1
- logD ([2]; read-out: logD): 1.51
- Drug uptake (Rattus norvegicus [3]): 0.55 % ID/g
- pKi (Translocator protein): 6.90
- Ratio (Striatum [4]): 4.82
- Drug uptake (Rattus norvegicus [5]): 0.15 % ID/g
- Ratio (Striatum [6]): 1.36

SMILES: O=C(CF)N(Cc1cccc2c1OCO2)c1ccccc1Oc1ccccc1
- logD ([2]; read-out: logD): 2.8
- Drug uptake (Rattus norvegicus [3]): 0.65 % ID/g
- pKi (Translocator protein): 8.69
- Ratio (Striatum [4]): 4.77
- Drug uptake (Rattus norvegicus [5]): 0.37 % ID/g
- Stability (Brain): 92%
- Ratio (Striatum [6]): 2.85

SMILES: COc1ccc(OC)c(CN(C(=O)CF)c2cncnc2Oc2ccccc2)c1
- logP [1]: 2.79
- pKi (Translocator protein): 7.20

- Drug uptake (Rattus norvegicus [3]): 0.28 % ID/g
SMILES: CCC(C)N([11CH3])C(=O)c1cc2ccccc2c(-c2ccccc2Cl)n1 (centres undefined)

SMILES: COc1ccc(OC)c(CN(C(=O)CF)c2ccccc2OC2CCCC2)c1
- logD ([2]; read-out: logD): 3.8
- Drug uptake (Rattus norvegicus [3]): 0.53 % ID/g
- pKi (Translocator protein): 9.34
- Ratio (Striatum [4]): 5.56
- Drug uptake (Rattus norvegicus [5]): 0.23 % ID/g
- Stability (Brain): 45%
- Ratio (Striatum [6]): 2.56

SMILES: COc1ncccc1CN(C(=O)CF)c1ccccc1Oc1ccccc1
- logD ([2]; read-out: logD): 2.38
- Drug uptake (Rattus norvegicus [3]): 0.66 % ID/g
- Ratio (Striatum [4]): 3.92
- Drug uptake (Rattus norvegicus [5]): 0.33 % ID/g
- Ratio (Striatum [6]): 2.54

SMILES: O=C(CF)N(Cc1cccc2c1OCCO2)c1ccccc1Oc1ccccc1
- logD ([2]; read-out: logD): 1.96
- Drug uptake (Rattus norvegicus [3]): 0.72 % ID/g
- pKi (Translocator protein): 8.94
- Ratio (Striatum [4]): 3.88
- Drug uptake (Rattus norvegicus [5]): 0.4 % ID/g
- Stability (Brain): 82%
- Ratio (Striatum [6]): 2.5

SMILES: COc1ccccc1CN(C(=O)CF)c1ccccc1OC1CCCC1
- logD ([2]; read-out: logD): 2.35
- Drug uptake (Rattus norvegicus [3]): 0.77 % ID/g
- pKi (Translocator protein): 8.18
- Ratio (Striatum [4]): 5.46
- Drug uptake (Rattus norvegicus [5]): 0.42 % ID/g
- Stability (Brain): 62%
- Ratio (Striatum [6]): 3.23

SMILES: Cc1ccc(CN(C(=O)CF)c2ccccc2Oc2ccccc2)o1
- logD ([2]; read-out: logD): 2.19
- pKi (Translocator protein): 7.14

- pKi (Translocator protein): 9.37
SMILES: COc1ccc(OC)c(CN(C(C)=O)c2cc(F)ccc2Oc2ccccc2)c1

- logD ([2]; read-out: logD): 1.58
- Drug uptake (Rattus norvegicus [3]): 0.25 % ID/g
- pKi (Translocator protein): 8.14
- Ratio (Striatum [4]): 4.4
- Drug uptake (Rattus norvegicus [5]): 0.26 % ID/g
- Ratio (Striatum [6]): 5.2
SMILES: COc1ccc(OCCF)c(CN(C(C)=O)c2cccnc2Oc2ccccc2)c1

SMILES: COc1ccc(OC)c(CN(C(=O)CF)c2ccccc2S(=O)(=O)c2ccccc2)c1
- pKi (Translocator protein): 5.46

SMILES: COc1ccc(OC)c(CN(C(=O)CF)c2ccccc2Sc2ccccc2)c1
- Drug uptake (Rattus norvegicus [3]): 0.61 % ID/g
- pKi (Translocator protein): 8.35
- Ratio (Striatum [4]): 6.22
- Drug uptake (Rattus norvegicus [5]): 0.17 % ID/g
- Ratio (Striatum [6]): 1.88

SMILES: O=C(CF)N(Cc1cccs1)c1ccccc1Oc1ccccc1
- logD ([2]; read-out: logD): 1.98
- pKi (Translocator protein): 6.79

SMILES: COc1ccc(OC)c(CN(C(=O)CF)c2ccccc2OC(C)C)c1
- logD ([2]; read-out: logD): 2.62
- pKi (Translocator protein): 8.42

SMILES: COc1ccc(OC)c(CN(C(=O)CF)c2cc(F)ccc2Oc2ccccc2)c1
- logD ([2]; read-out: logD): 2.06
- Drug uptake (Rattus norvegicus [3]): 0.73 % ID/g
- pKi (Translocator protein): 10.30
- Ratio (Striatum [4]): 1.71
- Drug uptake (Rattus norvegicus [5]): 0.7 % ID/g
- Ratio (Striatum [6]): 2.06

SMILES: CC1(C)Cc2cccc(CN(C(=O)CF)c3ccccc3Oc3ccccc3)c2O1
- logD ([2]; read-out: logD): 2.6
- Drug uptake (Rattus norvegicus [3]): 0.58 % ID/g
- pKi (Translocator protein): 8.58
- Ratio (Striatum [4]): 3.8
- Drug uptake (Rattus norvegicus [5]): 0.23 % ID/g
- Ratio (Striatum [6]): 1.53

SMILES: COc1ccc(OC)c(CN(C(=O)CF)c2ccccc2Oc2ccccc2)c1
- logD [2]: 2.36

- logD ([2]; read-out: logD): 2.6
SMILES: CC(=O)N(Cc1cccnc1OCCF)c1ccccc1Oc1ccccc1

SMILES: O=C(CF)N(Cc1cccc2c1OCC2)c1ccccc1Oc1ccccc1
- logD ([2]; read-out: logD): 2.68
- Drug uptake (Rattus norvegicus [3]): 0.81 % ID/g
- pKi (Translocator protein): 9.51
- Ratio (Striatum [4]): 2.52
- Drug uptake (Rattus norvegicus [5]): 0.68 % ID/g
- Stability (Brain): 91%
- Ratio (Striatum [6]): 2.52
